US12336991B2, “Factor XIIA inhibitors” (UNIVERSITY OF LEEDS, priority 2018, dated 2025)

Legend:
Assay type in all cases: biochemical
FXa = FXa (Homo sapiens, UniProt P00742); test: Determination of selectivity: FXa inhibition, chromogenic substrate S2765 assay; settings: fold selectivity for FXIIa over FXa
Protocol: (§1) The activities of the compounds of the invention have been determined in vitro using the following assays protocols for the screening of activity of FXIIa and other proteases. Each of these assays were performed in a purified system employing the use of chromogenic assays in microplate plate wells. Chromogenic peptide substrates mimicking natural protein substrates are attached via an amide bond to a chromogenic group. Paranitroaniline (pNA) is released from the peptide following catalyses by the proteolytic enzyme; the absorbance increases and can be monitored at 405 nm.
(§2) All compounds were dissolved in 100% (v/v) DMSO to a stock concentration of 10 mM, the highest concentration of compound used in each assay is 500 μM. The final concentrations of DMSO were 5% (v/v) in 50 mM Tris 137 mM NaC pH 7.4. Where no test compound was added a final concentration of 5% DMSO was employed.
(§3) Determination of Selectivity
(§4) To determine selectivity of test compounds, these test compounds were assayed for inhibitory activity against other serine proteases including FXa and thrombin. Essentially compounds at increasing concentrations were incubated with each enzyme: FXa (5 nM) and thrombin (5 nM), for 10 mins at 37° C. followed the appropriate chromogenic substrate, S2765 ([…]), and GPR ([…]) respectively in 50 mM Tris, 137 mM NaCl, pH 7.4. Chromogenic substrates S2765 was from Chromogenix, and GPR from Bachem. Kinetic readings at 405 nm were monitored every 12 secs for a total duration of 3 hours at 37° C. Gradients of initial rates were determined and employed to calculate IC50 values. Values of IC50 were converted to Ki values based on the formula: Ki=IC50/(1+[Substrate]/Km)
(§5) Where [Substrate] denotes the concentration of substrate used in the assay and Km is the determined value of each enzyme with its own substrate.
(§6) The fold selectivity for FXIIa over thrombin for the compounds of the invention has been categorised based on the fold selectivity values, the categories being “+”, “++” and “+++”. The category “+” refers to fold selectivity values less than 10. The category “++” refers to a fold selectivity value of 10 to 100. The category “+++” refers to fold selectivity values greater than 100.
The fold selectivity for FXIIa over FXa for the compounds of the invention has been categorised based on the fold selectivity values, the categories being “o”, “oo” and “ooo”. The category “o” refers to fold selectivity values less than 10. The category “oo” refers to a fold selectivity value of 10 to 100. The category “ooo” refers to fold selectivity values greater than 100.

thrombin = biological target: T1, thrombin (Homo sapiens, UniProt P00734); test: Determination of selectivity: thrombin inhibition, chromogenic substrate GPR assay; settings: fold selectivity for FXIIa over thrombin
T1 construct: FXa (5 nM) and thrombin (5 nM)
Protocol: as §1, §2, §3, §4, §5, §6

FXIIa = biological target: T2, FXIIa (Homo sapiens, UniProt P00748); test: Determination of Factor XIIa inhibition, chromogenic substrate S-2302 assay; settings: human FXIIa alpha
T2 sequence (P00748 373-615 limits assumed): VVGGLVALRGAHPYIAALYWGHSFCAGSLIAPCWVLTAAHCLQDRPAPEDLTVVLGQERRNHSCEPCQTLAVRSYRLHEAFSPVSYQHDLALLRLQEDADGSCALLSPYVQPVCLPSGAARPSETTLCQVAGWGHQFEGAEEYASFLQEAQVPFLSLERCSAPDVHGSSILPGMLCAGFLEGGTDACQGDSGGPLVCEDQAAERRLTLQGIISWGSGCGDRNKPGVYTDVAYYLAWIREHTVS
T2 sequence (P00748 20-372 partner limits assumed): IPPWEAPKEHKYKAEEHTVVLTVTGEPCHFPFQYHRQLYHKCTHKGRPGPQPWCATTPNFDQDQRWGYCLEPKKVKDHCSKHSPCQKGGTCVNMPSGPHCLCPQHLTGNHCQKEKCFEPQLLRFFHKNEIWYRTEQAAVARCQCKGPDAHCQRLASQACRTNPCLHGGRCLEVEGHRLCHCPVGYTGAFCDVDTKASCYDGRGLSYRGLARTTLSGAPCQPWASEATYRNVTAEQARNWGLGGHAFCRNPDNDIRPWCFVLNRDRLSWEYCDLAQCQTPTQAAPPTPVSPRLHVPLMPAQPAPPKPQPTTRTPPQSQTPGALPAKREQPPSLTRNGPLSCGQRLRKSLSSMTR
Protocol: as §1, §2
Determination of Factor XIa Inhibition
Factor XIa activity was measured using a chromogenic substrate S-2302 (Chromogenix). Various concentrations of compound were incubated with 10 nM of FXIIa and incubated at 37° C. for 10 minutes in 50 mM Tris, 137 mM NaCl, pH 7.4, prior to the addition of a final concentration of 450 µM S-2302 chromogenic substrate. Kinetic readings at 405 nm were monitored every 12 secs for a total duration of 3 hours at 37° C. Gradients of initial rates were determined and employed to calculate IC50 values. Values of IC50 were converted to Ki values based on the formula: Ki=IC50/(1+[Substrate]/Km).
The activity of the compounds of the invention has been categorised based on the Ki values, the categories being “*”, “**” and “***”. […] The category “**” refers to compounds with a Ki value of 0.2 μM to 2 μM.

Chain of FXa (P00742 235-488 limits assumed): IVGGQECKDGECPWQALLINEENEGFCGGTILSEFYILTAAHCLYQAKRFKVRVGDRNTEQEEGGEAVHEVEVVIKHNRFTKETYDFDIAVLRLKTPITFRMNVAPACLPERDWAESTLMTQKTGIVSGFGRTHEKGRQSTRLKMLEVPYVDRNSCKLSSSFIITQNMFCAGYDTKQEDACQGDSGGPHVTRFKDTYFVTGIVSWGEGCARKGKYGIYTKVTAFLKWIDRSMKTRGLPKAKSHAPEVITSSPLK
Chain of FXa (P00742 41-179 partner limits assumed): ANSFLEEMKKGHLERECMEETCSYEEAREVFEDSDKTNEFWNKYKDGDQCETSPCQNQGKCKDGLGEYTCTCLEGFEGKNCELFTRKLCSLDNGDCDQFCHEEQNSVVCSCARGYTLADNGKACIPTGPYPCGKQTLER

SMILES | FXa (human)/FXIIa alpha (human) (FXa) | Thrombin (human)/FXIIa alpha (human) (thrombin) | Ki (FXIIa)
Cn1nnc2cc(CNC(=O)[C@@H]3C[C@@H](Cc4ccc(Cl)cc4Cl)CN3C(=O)[C@H]3C[C@@H](c4ccccc4)CN3)ccc21 [Example M05373] | ∘∘ | ++ (fold selectivity value of 10 to 100) | 200 to 2000 nM
Cn1nnc2cc(CNC(=O)[C@@H]3C[C@@H](Cc4ccc(S(C)(=O)=O)cc4)CN3C(=O)[C@H]3C[C@@H](c4ccccc4)CN3)ccc21 [Example M05372] | ∘∘∘ | ++ (fold selectivity value of 10 to 100) | 200 to 2000 nM
COc1ccc(C[C@@H]2C[C@@H](C(=O)NCc3cc4cnccc4[nH]3)N(C(=O)[C@H](N)CCC(=O)N3CCCC3)C2)cc1 [Example M00957] | ∘∘∘ | +++ (fold selectivity values greater than 100) | < 200 nM
COc1ccc(C[C@@H]2C[C@@H](C(=O)NCc3ccc4c(c3)nnn4C)N(C(=O)[C@H]3CC(c4ccc(F)cc4)CN3)C2)cc1 (stereo partly drawn) [Example M05340] | ∘∘ | ++ (fold selectivity value of 10 to 100) | 200 to 2000 nM
Cn1nnc2cc(CNC(=O)[C@@H]3C[C@@H](Cc4cccc(Br)c4)CN3C(=O)[C@H](N)CCC(=O)N3CCCC3)ccc21 [Example M05317] | ∘∘∘ | +++ (fold selectivity values greater than 100) | < 200 nM
COc1ccc(C[C@@H]2C[C@@H](C(=O)NCc3ccc4c(c3)nnn4C)N(C(=O)C3NCCc4cc(O)ccc43)C2)cc1 (stereo partly drawn) [Example M05429] | ∘∘ | ++ (fold selectivity value of 10 to 100) | > 2000 nM
COc1ccc(C[C@@H]2C[C@@H](C(=O)NCc3ccc4c(c3)nnn4C)N(C(=O)[C@H](N)CCC(=O)N3CCC[C@H]3C(C)C)C2)cc1 [Example M05407] | ∘∘∘ | +++ (fold selectivity values greater than 100) | < 200 nM
COc1ccc2c(c1)CCNC2C(=O)N1C[C@H](Cc2ccncc2)C[C@H]1C(=O)NCc1ccc2c(c1)nnn2C (stereo partly drawn) [Example M05463] | ∘∘ | ++ (fold selectivity value of 10 to 100) | > 2000 nM
COc1ccc(C[C@@H]2C[C@@H](C(=O)NCc3cccs3)N(C(=O)[C@H](N)CCC(=O)N3CCCC3)C2)cc1 [Example M00972] | ∘∘ | ++ (fold selectivity value of 10 to 100) | 200 to 2000 nM
COc1ccc(C[C@@H]2C[C@@H](C(=O)NCc3ccc4c(c3)nnn4C)N(C(=O)[C@H]3CC(c4ccc(C(F)(F)F)cc4)CN3)C2)cc1 (stereo partly drawn) [Example M05345] | ∘∘ | ++ (fold selectivity value of 10 to 100) | > 2000 nM
COc1ccc(C[C@@H]2C[C@@H](C(=O)NCc3ccc4c(c3)nnn4C)N(C(=O)[C@H]3C[C@@H](C(=O)N4CCCC4)CCN3)C2)cc1 [Example M05490] | ∘∘∘ | +++ (fold selectivity values greater than 100) | < 200 nM
Cn1nnc2cc(CNC(=O)[C@@H]3CC(Cc4ccccc4Br)CN3C(=O)[C@H]3C[C@@H](c4ccccc4)CN3)ccc21 (stereo partly drawn) [Example M05329] | ∘∘ | ++ (fold selectivity value of 10 to 100) | > 2000 nM
Cn1nnc2cc(CNC(=O)[C@@H]3C[C@@H](CC4CCCC4)CN3C(=O)[C@H](N)CCC(=O)N3CCCC3)ccc21 [Example M05291] | ∘∘∘ | +++ (fold selectivity values greater than 100) | 200 to 2000 nM
COc1ccc(CC2C[C@@H](C(=O)NCc3ccc4c(c3)nnn4C)N(C(=O)[C@H](N)CCC(=O)N3CCCC3)C2)cc1Cl (stereo partly drawn) [Example M05298] | ∘∘∘ | +++ (fold selectivity values greater than 100) | < 200 nM
COc1ccc(C[C@@H]2C[C@@H](C(=O)NCc3ccc4c(c3)nnn4C)N(C(=O)[C@H]3CC(c4ccc(Cl)cc4)CN3)C2)cc1 (stereo partly drawn) [Example M05346] | ∘∘ | ++ (fold selectivity value of 10 to 100) | > 2000 nM

Now from value to compound:

FXa (human)/FXIIa alpha (human) (FXa) | Thrombin (human)/FXIIa alpha (human) (thrombin) | Ki (FXIIa) | SMILES
∘∘ | ++ (fold selectivity value of 10 to 100) | > 2000 nM | COc1ccc(C[C@@H]2C[C@@H](C(=O)NCc3cc4cccnc4[nH]3)N(C(=O)[C@H](N)CCC(=O)N3CCCC3)C2)cc1 [Example M05401]
∘∘ | ++ (fold selectivity value of 10 to 100) | > 2000 nM | COc1ccc(C[C@@H]2C[C@@H](C(=O)NCc3ccc4c(c3)nnn4C)N(C(=O)[C@H]3C[C@@H](c4ccccc4)CCN3)C2)cc1 [Example M05374]
∘∘ | + (fold selectivity values less than 10) | > 2000 nM | N#C[C@@H]1C[C@@H](C(=O)NCc2ccc(CN)cc2)N(C(=O)[C@H](N)CCc2ccccc2)C1 [Example M05091, (2S,4R)-1-((R)-2-Amino-4-phenyl-butyryl)-4-cyano-pyrrolidine-2-carboxylic acid 4-aminomethyl-benzylamide]
∘∘ | + (fold selectivity values less than 10) | > 2000 nM | Cc1ccccc1CC[C@@H](N)C(=O)N1CCC[C@H]1C(=O)NCc1ccc(CN)cc1 [Example M00760]
∘∘ | ++ (fold selectivity value of 10 to 100) | > 2000 nM | CC(=O)N(Cc1ccccc1)[C@H]1C[C@@H](C(=O)NCc2ccc3c(c2)nnn3C)N(C(=O)[C@H](N)CCc2ccccc2)C1 [Example M05161]
